Earlier results in patent publication US20040143023A1, “Materials and methods for synthesizing stilbenes” (priority 2000, published 2004).

Assays:
[1] = in water and saline
[2] = tested on: P388 murine leukaemia cell line; conditions: cell line not restated for the trans isomer

| SMILES | toxicity toward tumour vasculature (tumour vasculature) | solubility [1] | concentration range in which cell growth is inhibited [2] |
| --- | --- | --- | --- |
| COc1ccc(/C=C\c2cc(OC)c(OC)c(OC)c2)cc1O [cis-combretastatin A-4, Z-1-(3′-Hydroxy-4′-methoxyphenyl)-2-(3″,4″,5″-trimethoxyphenyl)ethene] | potent and selective toxicity | low solubility |  |
| COc1ccc(/C=C/c2cc(OC)c(OC)c(OC)c2)cc1O [trans-combretastatin A-4, E-1-(3′-Hydroxy-4′-methoxy)-2-(Trimethoxyphenyl)-2-(3″,4″,5″-trimethoxyphenyl)ethene] |  |  | millimblar range |
